Results published in patent US20240246964A1 (Arbutus Biopharma Corporation, priority 2021, published 2024).

Experiments:
[1] = molecular target: PD-L1 His protein / PD-1 Fc protein (Homo sapiens (Human), UniProt Q9NZQ7); assay: HTRF Assay (PD-1/PD-L1 interaction); type: binding; details: PD-L1 His 6 nM, PD-1 Fc 6 nM
human PD-L1 = human PD-L1 (Homo sapiens (Human), UniProt Q9NZQ7); assay: T cell activation luciferase reporter cell culture system (T Cell Activation Assay); type: cell-based; details: luciferase reporter assay; PD-L1 aAPC/CHO-K1 cells with PD-1 effector Jurkat T cells
Chain of human PD-L1 (Q9NZQ7 19-290): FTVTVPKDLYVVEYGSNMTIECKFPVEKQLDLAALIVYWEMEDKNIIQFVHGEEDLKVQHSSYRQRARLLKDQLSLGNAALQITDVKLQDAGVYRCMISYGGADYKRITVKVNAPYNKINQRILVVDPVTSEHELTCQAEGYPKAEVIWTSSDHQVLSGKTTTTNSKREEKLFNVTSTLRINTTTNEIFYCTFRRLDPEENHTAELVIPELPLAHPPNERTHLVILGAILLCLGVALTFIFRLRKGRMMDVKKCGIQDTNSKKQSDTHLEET

Chain of PD-L1 His protein / PD-1 Fc protein (Q9NZQ7 19-238): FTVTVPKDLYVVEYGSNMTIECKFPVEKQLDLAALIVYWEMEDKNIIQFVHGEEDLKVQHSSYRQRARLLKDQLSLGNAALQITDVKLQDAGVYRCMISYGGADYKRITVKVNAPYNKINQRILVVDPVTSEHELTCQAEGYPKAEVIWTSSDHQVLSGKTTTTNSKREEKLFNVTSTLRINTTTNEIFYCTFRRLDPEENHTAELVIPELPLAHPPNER

Compound: COc1cc(-c2nccc(-c3cccc(-c4ccc(CN5CC6(CNC(=O)C6)C5)c(OC)n4)c3Cl)c2Cl)cnc1CN1CC2(CNC(=O)C2)C1 [Compound 376, 2-((3-Chloro-4-(2-chloro-3-(6-methoxy-5-((7-oxo-2,6-diazaspiro[3.4]octan-2-yl)methyl)pyridin-2-yl)phenyl)-5′-methoxy-[2,3′-bipyridin]-6′-yl)methyl)-2,6-diazaspiro[3.4]octan-7-one]
- IC50 [1]: 0.458 nM
- EC50 (human PD-L1): 38.4 nM

Compound: COc1cc(-c2nccc(-c3cccc(-c4ccc(CN5CC6(C5)CN(C(C)=O)C6)c(OC)n4)c3Cl)c2Cl)cnc1CN1CC2(C1)CN(C(C)=O)C2 [Compound 428, 1-(6-((6-(3-(6′-((6-Acetyl-2,6-diazaspiro[3.3]heptan-2-yl)methyl)-3-chloro-5′-methoxy-[2,3′-bipyridin]-4-yl)-2-chlorophenyl)-2-methoxypyridin-3-yl)methyl)-2,6-diazaspiro[3.3]heptan-2-yl)ethan-1-one]
- IC50 [1]: 0.77 nM
- EC50 (human PD-L1): 51.2 nM

Compound: COc1cc(-c2nccc(-c3cccc(-c4ccc(CNC5CC6(COC6)C5)c(OC)n4)c3Cl)c2Cl)cnc1CNC1CC2(COC2)C1 (stereo not drawn) [Compound 429, N-((4-(3-(5-(((2-Oxaspiro[3.3]heptan-6-yl)amino)methyl)-6-methoxypyridin-2-yl)-2-chlorophenyl)-3-chloro-5′-methoxy-[2,3′-bipyridin]-6′-yl)methyl)-2-oxaspiro[3.3]heptan-6-amine]
- IC50 [1]: 4.1 nM
- EC50 (human PD-L1): 71.4 nM

Compound: COc1cc(-c2nccc(-c3cccc(-c4ccc(CN5CC6(CCC(=O)N6)C5)c(OC)n4)c3Cl)c2Cl)cnc1CN1CC2(CCC(=O)N2)C1 [Compound 430, 2-((3-Chloro-4-(2-chloro-3-(6-methoxy-5-((6-oxo-2,5-diazaspiro[3.4]octan-2-yl)methyl)pyridin-2-yl)phenyl)-5′-methoxy-[2,3′-bipyridin]-6′-yl)methyl)-2,5-diazaspiro[3.4]octan-6-one]
- IC50 [1]: 0.35 nM
- EC50 (human PD-L1): 23.3 nM

Compound: COc1cc(-c2nccc(-c3cccc(-c4ccc(CNC5CCOCC5)c(OC)n4)c3Cl)c2Cl)cnc1CNC1CCOCC1 [Compound 431, N-((6-(2-Chloro-3-(3-chloro-5′-methoxy-6′-(((tetrahydro-2H-pyran-4-yl)amino)methyl)-[2,3′-bipyridin]-4-yl)phenyl)-2-methoxypyridin-3-yl)methyl)tetrahydro-2H-pyran-4-amine]
- IC50 [1]: 2.03 nM
- EC50 (human PD-L1): 106 nM

Compound: COc1cc(-c2cccc(-c3ccnc(-c4cnc(CNC5CCN(C(C)=O)CC5)c(OC)c4)c3Cl)c2Cl)ccc1CNC1CCN(C(C)=O)CC1 [Compound 500, 1-(4-(((4-(4′-(((1-acetylpiperidin-4-yl)amino)methyl)-2-chloro-3′-methoxy-[1,1′-biphenyl]-3-yl)-3-chloro-5′-methoxy-[2,3′-bipyridin]-6′-yl)methyl)amino)piperidin-1-yl)ethan-1-one]
- IC50 [1]: 1.95 nM
- EC50 (human PD-L1): 120 nM

Compound: COc1cc(-c2cccc(-c3ccnc(-c4cnc(CN5CC6(CNC(=O)C6)C5)c(OC)c4)c3Cl)c2Cl)ccc1CN1CC2(CNC(=O)C2)C1 [Compound 501, 2-((3-Chloro-4-(2-chloro-3′-methoxy-4′-((7-oxo-2,6-diazaspiro[3.4]octan-2-yl)methyl)-[1,1′-biphenyl]-3-yl)-5′-methoxy-[2,3′-bipyridin]-6′-yl)methyl)-2,6-diazaspiro[3.4]octan-7-one]
- IC50 [1]: 0.92 nM
- EC50 (human PD-L1): 94.1 nM

Compound: COc1cc(-c2nccc(-c3cccc(-c4ccc(CN5CC6(CNC(=O)C6)C5)c(OC)n4)c3Cl)c2Cl)cnc1CNC1CCN(C(C)=O)CC1 [Compound 547, 2-((6-(3-(6′-(((1-acetylpiperidin-4-yl)amino)methyl)-3-chloro-5′-methoxy-[2,3′-bipyridin]-4-yl)-2-chlorophenyl)-2-methoxypyridin-3-yl)methyl)-2,6-diazaspiro[3.4]octan-7-one]
- IC50 [1]: 0.35 nM
- EC50 (human PD-L1): 69.2 nM

Compound: COc1cc(-c2nccc(-c3cccc(-c4ccc(CN5CC6(CNC(=O)C6)C5)c(OC)n4)c3Cl)c2Cl)cnc1CNC1CCOCC1 [Compound 548, 2-((6-(2-Chloro-3-(3-chloro-5′-methoxy-6′-(((tetrahydro-2H-pyran-4-yl)amino)methyl)-[2,3′-bipyridin]-4-yl)phenyl)-2-methoxypyridin-3-yl)methyl)-2,6-diazaspiro[3.4]octan-7-one]
- IC50 [1]: 1.13 nM
- EC50 (human PD-L1): 75.9 nM

Compound: COc1cc(-c2nccc(-c3cccc(-c4ccc(CN5CC6(CNC(=O)C6)C5)c(OC)n4)c3Cl)c2Cl)cnc1CNC[C@@H]1CCC(=O)N1 [Compound 550, (S)-2-((6-(2-Chloro-3-(3-chloro-5′-methoxy-6′-((((5-oxopyrrolidin-2-yl)methyl)amino)methyl)-[2,3′-bipyridin]-4-yl)phenyl)-2-methoxypyridin-3-yl)methyl)-2,6-diazaspiro[3.4]octan-7-one]
- IC50 [1]: 0.28 nM
- EC50 (human PD-L1): 25 nM

Compound: COc1cc(-c2nccc(-c3cccc(-c4ccc5c(CNC6CCN(C(C)=O)CC6)cn(C)c5n4)c3Cl)c2Cl)ccc1CNCCO [Compound 560, 1-(4-(((6-(2-Chloro-3-(3-chloro-2-(4-(((2-hydroxyethyl)amino)methyl)-3-methoxyphenyl)pyridin-4-yl)phenyl)-1-methyl-1H-pyrrolo[2,3-b]pyridin-3-yl)methyl)amino)piperidin-1-yl)ethan-1-one]
- IC50 [1]: 1.66 nM
- EC50 (human PD-L1): 57.3 nM

Compound: COc1cc(-c2nccc(-c3cccc(-c4ccc5c(CNC6CCOCC6)cn(C)c5n4)c3Cl)c2Cl)ccc1CNC1CCOCC1 [Compound 563, N-((6-(2-Chloro-3-(3-chloro-2-(3-methoxy-4-(((tetrahydro-2H-pyran-4-yl)amino)methyl)phenyl)pyridin-4-yl)phenyl)-1-methyl-1H-pyrrolo[2,3-b]pyridin-3-yl)methyl)tetrahydro-2H-pyran-4-amine]
- IC50 [1]: 4.07 nM
- EC50 (human PD-L1): 956 nM

Compound: COc1cc(-c2nccc(-c3cccc(-c4ccc5c(CNC6CCN(C(C)=O)CC6)cn(C)c5n4)c3Cl)c2Cl)ccc1CN1CC2(C1)CN(C(C)=O)C2 [Compound 564, 1-(4-(((6-(3-(2-(4-((6-Acetyl-2,6-diazaspiro[3.3]heptan-2-yl)methyl)-3-methoxyphenyl)-3-chloropyridin-4-yl)-2-chlorophenyl)-1-methyl-1H-pyrrolo[2,3-b]pyridin-3-yl)methyl)amino)piperidin-1-yl)ethan-1-one]
- IC50 [1]: 1.46 nM
- EC50 (human PD-L1): 260 nM

Compound: COc1cc(-c2cccc(-c3ccnc(-c4cnc(CNC5CCN(C(C)=O)CC5)c(OC)c4)c3Cl)c2Cl)cnc1CNC1CCN(C(C)=O)CC1 [Compound 567, 1-(4-(((5-(3-(6′-(((1-acetylpiperidin-4-yl)amino)methyl)-3-chloro-5′-methoxy-[2,3′-bipyridin]-4-yl)-2-chlorophenyl)-3-methoxypyridin-2-yl)methyl)amino)piperidin-1-yl)ethan-1-one]
- IC50 [1]: 17.7 nM
- EC50 (human PD-L1): ≥ 10000 nM

Compound: COc1cc(-c2cccc(-c3ccnc(-c4cnc(CN5CC6(CNC(=O)C6)C5)c(OC)c4)c3Cl)c2Cl)cnc1CN1CC2(CNC(=O)C2)C1 [Compound 569, 2-((3-Chloro-4-(2-chloro-3-(5-methoxy-6-((7-oxo-2,6-diazaspiro[3.4]octan-2-yl)methyl)pyridin-3-yl)phenyl)-5′-methoxy-[2,3′-bipyridin]-6′-yl)methyl)-2,6-diazaspiro[3.4]octan-7-one]
- IC50 [1]: 0.62 nM
- EC50 (human PD-L1): 580 nM
